{"source": "patent US20100093018A1", "about": "“CELLS […] PROTEINS AND ASSAYS USING SUCH CELLS” (ACHILLION PHARMACEUTICALS, INC., priority 2007, published 2010)", "key": {"replicase complex": {"biological_target": "T1, replicase complex (Hepatitis C virus genotype 1b, UniProt Q9WMX2)", "T1 construct": "expressed in transfected cells; host or cells: HCV replicon cells (Huh-7 derived)", "T1 sequence (Q9WMX2 1658-1711 limits assumed)": "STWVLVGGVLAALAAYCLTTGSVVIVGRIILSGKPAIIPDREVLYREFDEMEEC", "test": "Replicase activity in treated replicon cells (FIG. 3)", "assay_type": "cell-based", "conditions": "16 hour treatment of replicon cells, concentrations as low as 50 μM", "source_text": "FIG. 3. ACH-806 is a potent inhibitor of functional replicase complex production."}, "[1]": {"system": "parental replicon cellular line, Huh-9-13", "test": "Susceptibility of parental replicon cellular line", "assay_type": "cell-based, hepatitis C virus"}, "[2]": {"system": "ACH-806 resistant replicon cellular lines (806R)", "test": "Susceptibility of ACH-806 resistant replicon cellular lines", "assay_type": "cell-based, hepatitis C virus", "conditions": "for Fold change in EC50: versus Huh-9-13"}, "Luc/Parent replicon": {"system": "Luc/Parent replicon", "test": "Luciferase replicon susceptibility, parent", "assay_type": "cell-based", "conditions": "Hepatitis C virus, Luc/Parent replicon in Huh-7 cells, two independent experiments", "method": "(§1) To investigate the genetic basis of resistance to ACH-806 in the resistant replicon cellular lines, specifically the role of C16S and A39V in NS3, and 1585T 1 in NS5B, we introduced these mutations separately into a nonselectable replicon containing a luciferase reporter gene. Following the transfection of the parental replicon RNA molecule and the C16S, A39V and I585T variant replicon RNA molecules into Huh-7 cells, the replication capacity of all replicons was determined as described in Method and Materials. Replicon RNA carrying the A39V mutation replicated as efficiently as its parent, whereas the C16S and I585T mutations caused a slight decrease in the replication capacity (about 75% that of the parental replicon). The susceptibility of these four replicons to ACH-806 as well as to other classes of inhibitors was compared side by side, and the results are summarized in Table 2."}, "Luc/NS3-A39V replicon": {"system": "Luc/NS3-A39V replicon", "test": "Luciferase replicon susceptibility, NS3 A39V", "assay_type": "cell-based, hepatitis C virus", "method": "as §1"}, "Luc/NS3-C16S replicon": {"system": "Luc/NS3-C16S replicon", "test": "Luciferase replicon susceptibility, NS3 C16S", "assay_type": "cell-based, hepatitis C virus", "method": "as §1"}, "Luc/NS5B-I585T": {"system": "Luc/NS5B-I585T", "assay_type": "cell-based, hepatitis C virus", "method": "as §1"}, "[3]": {"system": "C16S or A39V replicon variant", "test": "Colony formation with selectable replicon under G418 and ACH-806", "assay_type": "cell-based, hepatitis C virus", "conditions": "C16S or A39V versus parental selectable replicon", "source_text": "To further confirm the role of C16S and A39V in conferring resistance to ACH-806, we introduced both mutations, separately, into a selectable replicon which carries the neo gene and the adaptive mutations that differ from the nonselectable replicon. Following transfection of the parental replicon RNA, the C16S replicon RNA and A39V replicon RNA into Huh-7 cells, the susceptibility of these three replicons to ACH-806, as evaluated by the number of colonies formed under the treatment of both G418 and ACH-806, was compared side by side. Again, an approximately 10-fold reduction in the susceptibility of C16S or A39V replicon variant to ACH-806 was observed."}, "[4]": {"system": "Luc/NS3-4A^R(S16) replicon", "test": "Fragment-cloned luciferase replicon susceptibility, S16", "assay_type": "cell-based", "conditions": "Hepatitis C virus", "source_text": "A third approach, fragment cloning, was used to reinforce the role of the C16S mutation and to exclude the role of other nonconsensus mutations in conferring resistant to ACH-806. A ˜3 kb fragment covering the coding region of NS3, NS4A, and part of NS4B was amplified by RT-PCR from total RNA isolated from ACH-806 resistant clone #28. The PCR product was cloned into the nonselectable replicon containing a luciferase reporter gene. Replicon RNA molecules were made from eight individual clones and were transfected into Huh-7 cells to determine the replication capacity by luciferase activity. From the eight clones, two were able to replicate efficiently and sequencing of the entire cloned fragment in these two clones confirmed the existence of C16S mutation in addition to other nonconsensus mutations. The serine at the amino acid residue of NS3 in one of these two clones was then converted back to cysteine using site-directed mutagenesis, leaving other nonconsensus mutations unchanged. The replication capacity of this resulting replicon [Luc/N3-4AR(C16)] was 95% that of its parent [Luc/N3-4AR(S16)] determined as previously described. After transfection into Huh-7 cells, the susceptibility of both replicons was compared. […]"}, "[5]": {"system": "Luc/NS3-4A^R(C16) replicon", "test": "Fragment-cloned luciferase replicon susceptibility, C16 revertant", "assay_type": "cell-based, hepatitis C virus", "source_text": "A third approach, fragment cloning, was used to reinforce the role of the C16S mutation and to exclude the role of other nonconsensus mutations in conferring resistant to ACH-806. A ˜3 kb fragment covering the coding region of NS3, NS4A, and part of NS4B was amplified by RT-PCR from total RNA isolated from ACH-806 resistant clone #28. The PCR product was cloned into the nonselectable replicon containing a luciferase reporter gene. Replicon RNA molecules were made from eight individual clones and were transfected into Huh-7 cells to determine the replication capacity by luciferase activity. From the eight clones, two were able to replicate efficiently and sequencing of the entire cloned fragment in these two clones confirmed the existence of C16S mutation in addition to other nonconsensus mutations. The serine at the amino acid residue of NS3 in one of these two clones was then converted back to cysteine using site-directed mutagenesis, leaving other nonconsensus mutations unchanged. The replication capacity of this resulting replicon [Luc/N3-4AR(C16)] was 95% that of its parent [Luc/N3-4AR(S16)] determined as previously described. After transfection into Huh-7 cells, the susceptibility of both replicons was compared. The reversion of serine back to cysteine at amino acid residue 16 of NS3 increased the susceptibility of the replicon to ACH-806 about 10 fold and maintained the susceptibility to other classes of HCV inhibitors (Table 3). Similar results were also obtained with a fragment containing NS3, 4A and part of 4B derived from a resistant cell line carrying A39V mutation (data not shown)."}, "BILN 2061^R (D168V)": {"system": "BILN 2061^R (D168V)", "test": "Susceptibility of BILN 2061 resistant replicon cell line", "assay_type": "cell-based, hepatitis C virus", "conditions": "BILN 2061^R (D168V) versus Huh-9-13"}, "NM107^R (S282T)": {"system": "NM107^R (S282T)", "test": "Susceptibility of NM107 resistant replicon cell line", "assay_type": "cell-based, hepatitis C virus", "conditions": "NM107^R (S282T) versus Huh-9-13"}, "NI-1^R (S282T)": {"system": "NI-1^R (S282T)", "test": "Susceptibility of NI-1 resistant replicon cell line", "assay_type": "cell-based, hepatitis C virus", "conditions": "NI-1^R (S282T) versus Huh-9-13"}, "NNI-1^R (M414T)": {"system": "NNI-1^R (M414T)", "test": "Susceptibility of NNI-1 resistant replicon cell line", "assay_type": "cell-based, hepatitis C virus", "conditions": "NNI-1^R (M414T) versus Huh-9-13"}}}
{"smiles": "CCCCCOc1ccc(NC(=S)NC(=O)c2cccnc2)cc1C(F)(F)F", "note": "[ACH-806, 1-nicotinoyl-3-(4-(pentyloxy)-3-(trifluoromethyl)phenyl)thiourea]", "values": [{"measurement": "reduction of replicase activity", "setting": "replicase complex", "result": "more than 50%"}, {"measurement": "EC50", "setting": "[1]; Hepatitis C virus, read-out: EC50 ± SD", "result": 40, "unit": "nM"}, {"measurement": "Fold change in EC50", "setting": "[1]; Parental cell line (Table 1)", "result": 1.0}, {"measurement": "Fold change in EC50", "setting": "[1]; Parental cell line (Table 4)", "result": 1.0}, {"measurement": "Fold change in EC50", "setting": "[2]; 806^R #6 (Selection 2), NS3 A39V", "result": 18.6}, {"measurement": "Fold change in EC50", "setting": "[2]; 806^R #8 (Selection 2), NS3 A39V", "result": 9.5}, {"measurement": "Fold change in EC50", "setting": "[2]; 806^R #9 (Selection 2), NS3 A39V", "result": 11.5}, {"measurement": "Fold change in EC50", "setting": "[2]; 806^R #22 (Selection 1), NS3 C16S", "result": 13.9}, {"measurement": "Fold change in EC50", "setting": "[2]; 806^R #23 (Selection 1), NS3 C16S", "result": 18.6}, {"measurement": "Fold change in EC50", "setting": "[2]; 806^R #24 (Selection 1), NS3 C16S", "result": 11.2}, {"measurement": "Fold change in EC50", "setting": "[2]; 806^R #25 (Selection 1), NS3 C16S", "result": 14.9}, {"measurement": "Fold change in EC50", "setting": "[2]; 806^R #28 (Selection 1), NS3 C16S", "result": 21.3}, {"measurement": "Average fold change in EC50", "setting": "[2]; average over 806^R cell lines", "result": 14.9}, {"measurement": "EC50", "setting": "Luc/Parent replicon; read-out: Potency EC50", "result": "10 ± 10", "unit": "nM"}, {"measurement": "EC90", "setting": "Luc/Parent replicon; read-out: Potency EC90", "result": "80 ± 10", "unit": "nM"}, {"measurement": "Fold change in potency, EC50", "setting": "Luc/NS3-A39V replicon; Luc/NS3-A39V versus Luc/Parent replicon, one experiment", "result": 14}, {"measurement": "Fold change in potency, EC50", "setting": "Luc/NS3-A39V replicon; {}", "result": 14.0}, {"measurement": "Fold change in potency, EC90", "setting": "Luc/NS3-A39V replicon; {}", "result": 13.7}, {"measurement": "Fold change in potency, EC50", "setting": "Luc/NS3-C16S replicon; Luc/NS3-C16S versus Luc/Parent replicon", "result": 12}, {"measurement": "Fold change in potency, EC50", "setting": "Luc/NS3-C16S replicon; {}", "result": "11.1 ± 1.0"}, {"measurement": "Fold change in potency, EC90", "setting": "Luc/NS3-C16S replicon; {}", "result": "11.3 ± 0.9"}, {"measurement": "Fold change in potency, EC50", "setting": "Luc/NS5B-I585T", "result": "0.7 ± 0.1"}, {"measurement": "Fold change in potency, EC90", "setting": "Luc/NS5B-I585T", "result": "1.1 ± 0.1"}, {"measurement": "reduction in the susceptibility (number of colonies formed)", "setting": "[3]", "result": "approximately 10 fold"}, {"measurement": "EC50", "setting": "[4]", "result": "270 ± 40", "unit": "nM"}, {"measurement": "EC90", "setting": "[4]", "result": "2350 ± 240", "unit": "nM"}, {"measurement": "increase of susceptibility on reversion of serine to cysteine at residue 16 of NS3", "setting": "[5]; C16 revertant versus S16 replicon", "result": "about 10 fold"}, {"measurement": "EC50", "setting": "[5]; Hepatitis C virus", "result": 20, "unit": "nM"}, {"measurement": "EC90", "setting": "[5]; Hepatitis C virus", "result": "240 ± 10", "unit": "nM"}, {"measurement": "Fold change in EC50", "setting": "BILN 2061^R (D168V)", "result": 1.1}, {"measurement": "Fold change in EC50", "setting": "NM107^R (S282T)", "result": 0.5}, {"measurement": "Fold change in EC50", "setting": "NI-1^R (S282T)", "result": 0.8}, {"measurement": "Fold change in EC50", "setting": "NNI-1^R (M414T)", "result": 0.9}]}
